The target in the experiment is DEN MTase (Dengue virus type 2, UniProt P29990). As to the kind of experiment: GTP-Bodipy displacement. Format: binding. To be noted: for Fold Affinity Reduction: Ki relative to GTP.
Setting [1] is: 10 nM GTP-Bodipy, 500 nM DEN MTase.

Molecules are shown by their SMILES. Where two headings read alike, the source gives them in different places.

A word on the Ki: it is the equilibrium dissociation constant of an inhibitor or competing ligand from its target.

Chain of DEN MTase (P29990 2493-2755 limits assumed): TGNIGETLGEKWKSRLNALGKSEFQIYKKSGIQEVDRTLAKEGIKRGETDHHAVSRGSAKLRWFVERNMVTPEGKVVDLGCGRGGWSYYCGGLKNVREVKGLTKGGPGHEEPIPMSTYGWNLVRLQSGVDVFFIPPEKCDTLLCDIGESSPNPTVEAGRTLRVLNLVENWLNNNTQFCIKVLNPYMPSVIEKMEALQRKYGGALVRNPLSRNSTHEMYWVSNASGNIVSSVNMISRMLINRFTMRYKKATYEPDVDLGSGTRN

Take `O=c1[nH]cnc2c1ncn2[C@@H]1O[C@H](COP(=O)(O)OP(=O)(O)OP(=O)(O)O)[C@@H](O)[C@H]1O` [ITP, Inosine triphosphate]: the “Fold Affinity Reduction” value came to 3. The same compound returned a Ki under setting [1] of 120 nM. Consider `Nc1nc2c(ncn2[C@@H]2O[C@H](CO)[C@@H](O)[C@H]2O)c(=O)[nH]1` [Guanosine, guanosine], for which the affinity, expressed as Ki, was 260000 nM and the “Fold Affinity Reduction” value came to 6400. Consider `Cn1c[n+]([C@@H]2O[C@H](COP(=O)(O)OP(=O)(O)OP(=O)(O)OC[C@H]3O[C@@H](n4cnc5c(=O)[nH]c(N)nc54)[C@H](O)[C@@H]3O)[C@@H](O)[C@H]2O)c2nc(N)[nH]c(=O)c21` [^7meGpppG], for which, under setting [1], the affinity, expressed as Ki, was 100 nM. In the case of `Nc1nc2c(ncn2[C@H]2C[C@H](O)[C@@H](COP(=O)(O)OP(=O)(O)OP(=O)(O)O)O2)c(=O)[nH]1` [dGTP], the “Fold Affinity Reduction” value amounted to 15. This compound came in with a Ki under setting [1] of 610 nM. In the case of `CSc1nc(N)nc2c1ncn2C1OC(COP(=O)(O)OP(=O)(O)OP(=O)(O)O)C(O)C1O` (centres unmarked) [6-methylthio GTP, 6-methylthio-GTP], under setting [1], the inhibitory constant (Ki) was 230 nM.

For the compound `Nc1nc2c(ncn2[C@@H]2O[C@H](COP(=O)(O)OP(=O)(O)OP(=O)(O)O)[C@@H](O)[C@H]2O)c(=O)[nH]1` [GTP, guanosine triphosphate], the Ki was found to be 40 nM and the “Fold Affinity Reduction” value is given as 0. Consider `Nc1nc2c(ncn2[C@@H]2O[C@H](COP(=O)(O)O)[C@@H](O)[C@H]2O)c(=O)[nH]1` [GMP], for which the inhibitory constant (Ki) under setting [1] was 950 nM. Under setting [1], `Cn1c[n+]([C@@H]2O[C@H](COP(=O)(O)OP(=O)(O)OP(=O)(O)OC[C@H]3O[C@@H](n4cnc5c(N)ncnc54)[C@H](O)[C@@H]3O)[C@@H](O)[C@H]2O)c2nc(N)[nH]c(=O)c21` [^7meGpppA] displayed a Ki of 170 nM. `Nc1nc2c(ncn2[C@H]2CC[C@@H](COP(=O)(O)OP(=O)(O)OP(=O)(O)O)O2)c(=O)[nH]1` [ddGTP]: the “Fold Affinity Reduction” value is listed as 19. Moreover, the Ki under setting [1] worked out at 770 nM. Consider `Nc1ncnc2c1ncn2[C@@H]1O[C@H](COP(=O)(O)OP(=O)(O)OP(=O)(O)O)[C@@H](O)[C@H]1O` [ATP, Adenosine triphosphate], for which the Ki is 350000 nM and the “Fold Affinity Reduction” value was found to be 8750.

`O=c1[nH]c(=O)c2ncn([C@@H]3O[C@H](COP(=O)(O)OP(=O)(O)OP(=O)(O)O)[C@@H](O)[C@H]3O)c2[nH]1` [XTP, xanthine triphosphate]: the “Fold Affinity Reduction” value worked out at 12. The affinity under setting [1] corresponds to a Ki of 480 nM.

In the case of `Nc1nc2c(ncn2[C@@H]2O[C@H](COP(=O)(O)OP(=O)(O)O)[C@@H](O)[C@H]2O)c(=O)[nH]1` [GDP], the “Fold Affinity Reduction” value is 3. Also, the affinity under setting [1] corresponds to a Ki of 100 nM.

These data come from PMC2680092 (Journal of molecular biology, 2008).
